# Assay results from US20250222108A1, “MEDICAL AGENT INCLUDING ADJUVANT AND COMPOSITE OF PHOTOSENSITIVE MOLECULE AND MOLECULE BINDING TO CANCER-SPECIFIC CELL SURFACE MOLECULE” (KYOTO UNIVERSITY, priority 2021, published 2025).
# Test system: KPC-N cells
# Assay: Antitumor effect by TLR3 ligand, pancreatic cancer model
# Assay type: in vivo, C57BL/6 mice
# Conditions: 50 μg intratumoral on day 8; N=6
# Description: PolyI:C (Poly (I:C) (HMW) VacciGrade™: InvivoGen), which is a TLR3 ligand, was used.
# 1.5×10^6 KPC-N cells were subcutaneously transplanted to the back of 6- to 8-week-old C57BL/6 mice, and two groups (each group N=6) of non-treatment group (Control) and polyI:C group were established. To the tumor of the mice on day 8 after subcutaneous transplantation was topically injected (intratumoral administration) 50 μg of polyI:C.
substance,measurement,value
polyI:C,antitumor effect (tumor size),no antitumor effect
